For one data set, the system named is ANP mRNA. Description: ANP mRNA levels in left ventricular tissue by RT-PCR. Type of data set: in vivo, Sprague-Dawley rats. The settings on record: CHF rats, 30 mg/kg orally for 8 weeks, mean±SD, CHF control 0.963±0.114, normal 0.607±0.169. The method, then: (§1) Male Sprague-Dawley rats, weighing 220-240 g, were randomly divided into three groups: a normal control group
(§2) (Normal), a heart failure control group (CHF) and a treatment group (CHF plus cpd.1), each group consisting of seven rats. The pyrazolopyrimidinone derivative was orally administered to heart failure-developed animals of the treatment group in a dose of 30 mg/kg.
(§3) Normal control animals were subjected to a sham operation. […] After 8 weeks, 5 ml/kg of a solvent was orally administered to the normal control and heart failure control groups for 8 weeks, and the pyrazolopyrimidinone derivative was orally administered to the treatment group at a dose of 30 mg/kg for 8 weeks. Then, rats were anesthetized with pentobarbital (50 mg/kg, i.p.), and subjected to M-mode echocardiography in order to evaluate interventricular septum wall thickness (IWT) at end-systole (S) and end-diastole (D) of the left ventricle, posterior left ventricular wall thickness (PWT), left ventricular end-systolic dimension (LVESD), and left ventricular end-diastolic dimension (LVEDD). The relative wall thickness (RWT) was calculated according to the following equation: [IWT(D)+PWT(D)]/LVEDD, and is given in Table 1, below.
(§4) After the echocardiographic measurements, blood samples were collected from abdominal aortas to prepare serum samples. […] All values are expressed as mean±SD.

A short description of data set [1]: In vivo half-life compared to sildenafil. The note with it: longer than sildenafil.
Data set [2] concerns atrial natriuretic peptide (ANP). Description: Serum atrial natriuretic peptide (ANP) levels in heart failure rats. The settings on record: CHF rats, 30 mg/kg orally for 8 weeks; mean±SD; CHF control 0.040±0.004, normal 0.029±0.003. Type of data set: in vivo, Sprague-Dawley rats. How it is done: as §1, §2, §3, §4
Data set [3] can be described thus: Physicochemical properties: solubility.
Data set [4] relates to collagen deposition (ventricular fibrosis). Description: Collagen deposition in left ventricular tissue (Masson's trichrome) as marker of ventricular fibrosis. Type of data set: in vivo, Sprague-Dawley rats. The settings on record: CHF rats, 30 mg/kg orally for 8 weeks, mean±SD, CHF control 0.928±0.228, normal 0.384±0.103. The method, then:
as §1, §2, §3, §4

The target of data set [5] is phosphodiesterase-5 (PDE-5) (Homo sapiens, UniProt O76074). The note with it: cited from earlier work.
Data set [6] has as its system chronic heart failure-induced rats (abdominal aorta-to-inferior vena cava fistula). Kind of data set: M-mode echocardiography in aortocaval fistula rat model of chronic heart failure. Type of data set: in vivo, Sprague-Dawley rats. The settings on record: CHF rats, 30 mg/kg orally for 8 weeks, mean±SD. How it is done:
as §3, with “Male Sprague-Dawley rats, weighing 220-240 g, were randomly divided into three groups: a normal control group (Normal), a heart failure control group (CHF) and a treatment group (CHF plus cpd.1), each group consisting of seven rats. The pyrazolopyrimidinone derivative was orally administered to heart failure-developed animals of the treatment group in a dose of 30 mg/kg. Normal” for “Normal”

Data set [7] is described as follows: Physicochemical properties: pKa.

These results are taken from US20100173915A1, “PHARMACEUTICAL COMPOSITIONS FOR THE TREATMENT OF CHRONIC HEART FAILURE COMPRISING PYRAZOLOPYRIMIDINONE DERIVATIVE COMPOUND” (DONG-A PHARMACEUTICAL. CO., LTD, priority 2007, published 2010).

SMILES strings stand for the structures.

Regarding `CCCOc1ccc(S(=O)(=O)NCCC2CCCN2C)cc1-c1nc2c(CCC)nn(C)c2c(=O)[nH]1` (stereo not shown) [cpd.1, 5-[2-propyloxy-5-(1-methyl-2-pyrrolidinyleneamidosulfonyl)phenyl]-1-methyl-propyl-1,6-dihydro-7H-pyrazolo(4,3-d)pyrimidine-7-one], the “ANP mRNA levels in left ventricular tissues” value with ANP mRNA amounted to 0.739±0.120. The “in vivo half-life relative to sildenafil” value in data set [1] was 3 times. In data set [2], the “serum ANP levels” value was 0.033 ± 0.003 ng/mL. Further, the “solubility in acetic acid, methanol and chloroform” value in data set [3] (acetic acid, methanol and chloroform) is “readily dissolved”. Moreover, the solubility in water result in data set [3] (water) was “difficult to dissolve in water”. Also, in data set [4], the “amount of collagen deposition in ventricular tissue” value amounted to 0.604±0.214. For the same compound, the “inhibitory activity against PDE-5” value in data set [5] was “strong and selective inhibitory activity”. In addition, the “RWT, relative wall thickness [IWT(D)+PWT(D)]/LVEDD” value in data set [6] (CHF control 0.34 ± 0.02, normal 0.42 ± 0.05) was 0.42 ± 0.05. The “IWT(D), interventricular septum wall thickness at end-diastole” value in data set [6] (CHF control 1.56 ± 0.09, normal 1.81 ± 0.20) came out at 1.74 ± 0.13 mm. Further, in data set [6] (CHF control 1.64 ± 0.11, normal 1.83 ± 0.13), the “PWT(D), posterior left ventricular wall thickness at end-diastole” value is given as 1.78 ± 0.04 mm. In data set [6] (CHF control 2.54 ± 0.18, normal 2.89 ± 0.15), the “PWT(S), posterior left ventricular wall thickness at end-systole” value stood at 2.80 ± 0.10 mm. The “IWT(S), interventricular septum wall thickness at end-systole” value in data set [6] (CHF control 2.56 ± 0.11, normal 2.83 ± 0.17) amounted to 2.74 ± 0.11 mm. For the same compound, the “LVESD, left ventricular end-systolic dimension” value in data set [6] (CHF control 6.20 ± 0.70, normal 5.43 ± 0.31) worked out at 4.68 ± 0.38 mm. Besides, the “LVEDD, left ventricular end-diastolic dimension” value in data set [6] (CHF control 9.75 ± 0.85, normal 8.69 ± 0.56) was determined as 8.45 ± 0.62 mm. Besides, in data set [7], the pKa1 result is reported as “about 6.5” and the pKa2 result was “about 12.5”.
